Results reported in the METLIN SMRT retention time set (Domingo-Almenara et al. 2019).

Assay: gradient 5% acetonitrile 3 min, to 50% in 2 min, to 85% in 15 min, held 3 min, 100 µL/min
Conditions: column: Zorbax Extend-C18 2.1 x 50 mm; eluents: water / acetonitrile, 0.1% formic acid
How it was run: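 A Zorbax Extend-C18 column (2.1 × 50 mm, 1.8 μm) run at 100 μL/min with water and acetonitrile, both containing 0.1% formic acid, separated mixtures of ~100 pure standards. The HPLC was coupled to a quadrupole time-of-flight mass spectrometer operated in positive and negative ionization mode, with dead and dwell volumes of 40 μL and 900 μL. Each retention time was taken from a computationally picked adduct peak that was then manually inspected.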

Row | RP-LC retention time [s] | SMILES
1 | 1160 | CCc1nc(-c2cc(S(=O)(=O)Nc3cc(F)ccc3Cl)c(C)s2)cs1
2 | 676 | COc1cccc(Cn2c(C)c(CNCc3ccccn3)c(C(=O)O)c2C)c1
3 | 908 | O=C(Nc1cccc(F)c1)C1CCCN(c2ccc3cc(S(=O)(=O)N4CCCCC4)ccc3n2)C1 (centres undefined)
4 | 954 | COc1cc(NC(=O)Cn2c(=O)n(C3CCCCC3)c3ncccc32)cc(OC)c1
5 | 662 | O=C(Nc1nc(-c2cccnc2)cs1)C(c1ccccc1)n1cccc1 (centres undefined)
6 | 935 | CCc1cc(=O)n(CC(=O)Nc2cc(Cl)ccc2OC)c(N2CCOCC2)n1
7 | 919 | CCn1cc(-c2ccc(C)cc2)cc1C(=O)NCCOC
8 | 1140 | O=c1c2cc(-c3ccc(F)cc3)nn2cnn1Cc1nc(-c2ccccc2Br)no1
9 | 570 | CCC(=O)N1CCOc2ccc(N(C)C)cc2C1
10 | 700 | O=C(NCc1cc(F)cc(F)c1)C1CCN(c2cncnc2N2CCCCC2)CC1
11 | 666 | O=C(NC1CCN(C(=O)C2CC2)C1)c1ccc(F)cc1 (centres undefined)
12 | 744 | CC(C)n1cnc(S(=O)(=O)N2CCC(C(=O)NCc3ccccc3Cl)CC2)c1
13 | 648 | O=C(NC1CCN(c2cc(-c3ccccc3)[nH]n2)C1)c1ccc2c(c1)OCO2 (centres undefined)
14 | 1150 | COc1ccccc1NS(=O)(=O)c1c(C)nn(-c2ccc(-c3ccc(C)cc3)nn2)c1C
15 | 895 | CC1Cc2ccccc2N1C(=O)c1ccc(=O)n(CCC(=O)NC2CCCCCCC2)n1 (centres undefined)
16 | 998 | C=CCn1c(=O)c2ccccc2n(Cc2nc(-c3ccc4c(c3)OCO4)no2)c1=O
17 | 589 | CC(C)n1cnc(S(=O)(=O)N2CCC(C(=O)NCc3ccc(N(C)C)cc3)CC2)c1
18 | 771 | Cc1ccc(-c2nc(C)c3c(n2)N(Cc2ccccn2)C(=O)CC3)cc1
19 | 794 | CCn1c(=O)c2c(cc(C)n2C)n(CC(=O)Nc2ccc(OC)c(Cl)c2)c1=O
20 | 601 | O=C(Nc1cccc(-c2nnc3n2CCCC3)c1)C1CC1
21 | 862 | Cc1cc(Cl)ccc1NC(=O)CCc1c(C)nn(-c2cc(N(C)C)ncn2)c1C
22 | 553 | Cc1cc(N2CCCC2)n2nc(CN3CCN(c4ccccn4)CC3)nc2n1

Row | RP-LC retention time [s] | SMILES
23 | 649 | COc1ccc(C2CC(=O)c3cnn(-c4nc5ccccc5[nH]4)c3C2)c(OC)c1 (centres undefined)
24 | 1040 | CCOc1ccccc1N1CCN(C(=O)c2sc3ncccc3c2-n2cccc2)CC1
25 | 866 | Cc1oc(-c2ccc(NC(=O)Cc3ccc(F)cc3)cc2)nc1Cn1cccn1
26 | 609 | c1nn2cnnc2cc1N1CCN(Cc2csc3c2CCCC3)CC1
27 | 773 | Cc1nc(-c2cccs2)c(CCC(=O)NC2CCCC2)s1
28 | 787 | CCC(C)NC(=O)c1nnc(-c2ccc(S(=O)(=O)N3CCOCC3)cc2)o1 (centres undefined)
29 | 618 | Clc1ccc(-c2nc(N3CCN(c4ccccn4)CC3)c3ccccc3n2)cc1
30 | 683 | CCCNC(=O)CC1CCN(C(=O)c2[nH]c(C)c(C(=O)OCC)c2C)CC1
31 | 746 | O=C(NCc1ccc(Br)cc1)C1CCN(c2cnc3nccnc3c2)CC1
32 | 643 | CCC(C)NC(=O)Cn1cnc2nc(N3CCCC(C(=O)NC(C)C)C3)sc2c1=O (centres undefined)
33 | 559 | Cc1ccc(CN2C[C@@H](CO)[C@H](c3ccccn3)C2)nc1
34 | 829 | Cc1ccc(C2=NC3(CCN(C(=O)Cc4cccs4)CC3)ON2)cc1
35 | 814 | COc1ccc2[nH]cc(CCNC(=O)c3cc(-c4ccccn4)nc4ccccc34)c2c1
36 | 537 | CC(=O)N1CCN(c2nc3c(s2)CC(C(=O)N2CCC(C)CC2)CC3)CC1 (centres undefined)
37 | 726 | CCN(CC)c1ncnc2c(-c3ccccc3)cn(CC(=O)NCCc3ccc(OC)c(OC)c3)c12
38 | 726 | CCN(CC)CCNC(=O)c1ccc(NCN2C(=O)NC(c3ccccc3)(c3ccccc3)C2=O)cc1
39 | 1170 | CCn1cc(C(=O)Nc2ccc(F)c(F)c2)c(S(=O)(=O)N2CCC(C)CC2)n1
40 | 600 | COc1ccc(N(C)C(=O)c2nc(C)n(C3CCN(S(C)(=O)=O)CC3)c2C)cc1
41 | 856 | CCN1c2cc(Cl)ccc2C(=O)NC12CCN(C(=O)NCc1cccc(F)c1)CC2
42 | 896 | CCOC(=O)c1ccc(NC(=O)c2ccc3c(c2)N(C)C2CCCCN2C3=O)cc1 (centres undefined)
43 | 613 | COc1ccc(F)cc1S(=O)(=O)NC1CCc2nnc(C)n2CC1 (centres undefined)
44 | 925 | COc1ccc(S(=O)(=O)N(C)CC2(C)CCOCC2)cc1Cl

Row | RP-LC retention time [s] | SMILES
45 | 639 | CCN1C(=O)C2CCCN2C(=O)c2ccccc21 (centres undefined)
46 | 788 | CCc1cccc(-n2nnc(C(=O)O)c2CC)c1
47 | 1190 | CCc1nc2cc(-c3noc(Cc4ccc(OC)cc4Cl)n3)ccc2o1
48 | 891 | Cc1c(Cl)cccc1NC(=O)N1CCc2c(c(COc3ccccc3)nn2C)C1
49 | 1120 | COc1ccc(-c2noc(CN3C(=O)COc4ccc(C(C)(C)C)cc43)n2)cc1OC
50 | 845 | CC(C)n1nc(CNC(=O)c2cccs2)c2ccccc21
51 | 910 | Cc1ccc(CNC(=O)C2(C)CCCN(C(=O)NCCC(C)C)C2)cc1 (centres undefined)
52 | 581 | O=C1CCCN1CCCNc1nc(C2CC2)nc2c1CCC2
53 | 667 | CC(C)CCNC(=O)N1CCN(Cc2nc3cccnc3n2-c2ccc(F)cc2)CC1
54 | 639 | CC(C)C(=O)N1CCc2c(c(-c3nncn3C(C)C)nn2C)C1
55 | 797 | Cc1nn2c(CNC(=O)c3cccs3)c(-c3ccccc3)nc2s1
56 | 806 | O=C(CCNc1c(-c2cccc(F)c2)nc2cnccn12)NCc1ccc(F)c(Cl)c1
57 | 570 | Cc1nc(C)c(C(=O)NCCn2c(C)cnc2C2CCC2)s1
58 | 751 | Cc1ccc(Oc2cccc(C(=O)Nc3ccc(-c4csc(C)n4)cc3)c2)nn1
59 | 700 | CCN1CCN(c2nc(F)c3c(c2F)S(=O)(=O)CCN3C2CCCCC2)CC1
60 | 554 | O=C(C1CCN(c2cncnc2N2CCCCC2)CC1)N1CCCC1
61 | 885 | Cn1nc(-c2nnc(-c3ccccc3F)o2)c2c1CCN(S(=O)(=O)c1cccc(C#N)c1)C2
62 | 688 | Cc1cccc(NC(=O)Cn2cnc3nc(N4CCCC(C(=O)NC5CC5)C4)sc3c2=O)c1C (centres undefined)
63 | 711 | COc1ccccc1NC(=O)N1CCCC1c1nncn1-c1ccccc1 (centres undefined)
64 | 742 | CCc1cccc(NC(=O)N2CCCC2c2nncn2C2CCCC2)c1 (centres undefined)
65 | 996 | Cc1nc(-c2csc(S(=O)(=O)N3CCCC(C(=O)Nc4cc(F)ccc4F)C3)c2)no1 (centres undefined)
66 | 708 | CC1CCC2(CC1)NC(=O)N(CC(=O)Nc1ccc3c(c1)OCO3)C2=O (centres undefined)

Row | RP-LC retention time [s] | SMILES
67 | 590 | CNC(=O)c1noc([C@@H]2CC(F)(F)CN2Cc2cccn2C)n1
68 | 602 | CCOC(=O)CNC(=O)N1CCN(c2nc3ccccc3n2CC)CC1
69 | 818 | CC(C)(C)NC(=O)N1CCC(CNC(=O)C(=O)NCCC2=CCCCC2)CC1
70 | 801 | Cc1ccc(Cl)cc1NC(=O)N1CCC(OC2CCN(S(C)(=O)=O)CC2)CC1
71 | 837 | O=C(CSc1ncccn1)Nc1nc(-c2ccccc2)cs1
72 | 820 | O=C(NC1CC1)c1ccc(OCC2CCCN(C(=O)c3c(F)cccc3F)C2)cc1 (centres undefined)
73 | 855 | Cc1ccc(Nc2c(-c3ccc(N(C)C)cc3)nc3cnccn23)cc1
74 | 851 | Cc1ccc(CNC(=O)c2[nH]c(C)c(S(=O)(=O)N3CCCC3)c2C)cc1
75 | 754 | COc1cccc(CNC(=O)C2CCCN(c3nnc4ccc(Cl)cn34)C2)c1OC (centres undefined)
76 | 724 | CCCn1c(C)cnc1C1CN(S(=O)(=O)c2ccc(Cl)c(Cl)c2)C1
77 | 1130 | COc1ccc(Cl)cc1NC(=O)CSc1nnc2c3cc(-c4ccc(C)c(C)c4)nn3ccn12
78 | 708 | CNC(=O)C1CCN(Cc2cc3ccccc3n2Cc2ccc(Cl)cc2)CC1
79 | 1190 | Cc1nn(-c2nc(-c3ccc(F)cc3)cs2)c(C)c1CC(=O)Nc1ccc(Cl)cc1
80 | 772 | CCC(=O)Nc1ccc(SCC(=O)Nc2ccc(F)c(Cl)c2)nn1
81 | 631 | CCn1cc(S(=O)(=O)N2CCC(n3c(C)cnc3-c3ccccc3)CC2)cn1
82 | 772 | CCn1nnc2cc(-c3noc(CNC(=O)c4ccccc4)n3)ccc21
83 | 703 | CCCOC(=O)Cn1c(=O)oc2cc(S(=O)(=O)N3CCN(c4ccccn4)CC3)ccc21
84 | 776 | O=C(NC1CCCC1)C1CCN(c2nc3ccc(-c4cncnc4)nc3s2)CC1
85 | 860 | COc1ccc(C2CC(=O)N(c3ccccc3)C(=O)C2)cc1OC
86 | 577 | CCC(=O)N1CCc2sc(C(=O)NCc3ccccn3)cc2C1
87 | 813 | CCCN1N=C(C(=O)N2CCOCC2)S(=O)(=O)c2cc(Cl)ccc21

Row | SMILES | RP-LC retention time [s]
88 | O=P(Oc1ccccc1)(Oc1ccccc1)c1ccccc1 | 1070
89 | CCC(COC(=O)c1cc(OC)c(OC)c(OC)c1)(c1ccccc1)N(C)C (centres undefined) | 752
